Patent publication US6448283B1, “Methods for preventing/treating damage to sensory hair cells and cochlear neurons” (Cephalon, Inc., priority 1998, dated 2002)
One block for each molecule: values may come before it.

Assays:
[1] = test system: outer hair cells in organotypic cultures of the neonatal organ of Corti; experiment: Hair cell counts in neomycin-exposed cochlear explant cultures; format: cell-based, rat
Procedure: (§1) The basal half of cochleas containing the basal and middle turns were dissected from postnatal day 2 Wistar rats. The cultures were maintained on Nuclepore filters (pore size […]; Pleasanton, Calif.) placed on a metal grid in F12 medium (Life Technologies, Gaithersburg, Md.) containing 15% fetal bovine serum (Life Technologies). After a 2-hour-long stabilization period, explants were exposed to 100 mM neomycin sulfate (Sigma, St Louis, Mo.) for 48 hr.
(§2) Explants were fixed with 4% paraformaldehyde/0.5% glutaraldehyde in phosphate buffered saline (PBS), pH 7.4, for 30 min and dissected for surface preparations. They were stained with a 1:100 dilution of rhodamine-phalloidin in PBS containing 0.25% Triton X-l 00 overnight at 4° C. and mounted in Vectashield (Vector). Outer hair cell (OHC) numbers were quantified with a Zeiss Axiovert 100/135 epifluorescent microscope (Germany) connected to a Bio-Rad MRC-1024 confocal laser scanning system (Richmond, Calif.). Hair cells were characterized as missing if no stereocilia and cuticular plate were observed. Numbers of OHCs were evaluated using a 40×objective lens and an ocular grid. Nine to 1 fields filled by 30 OHCs in each of the 3 rows (when all of them were present) were studied from each explant. Basal and middle coils were analyzed separately. Three separate experiments, each including 4 explants of both conditions (neomycin and neomycin plus Formula II) were analyzed.
as §1, with “μM” for “mM”, “hr. The compounds of Formula I and the compound of Formula I were added at 500 nM at the time of initiation of the cultures and every 12 hr thereafter. Neomycin plus vehicle was used as a control.” for “hr.”
as §2, with “X-100” for “X-l 00”, “40x objective” for “40×objective”, “Several” for “Nine to 1”, “separately.” for “separately. Three separate experiments, each including 4 explants of both conditions (neomycin and neomycin plus Formula II) were analyzed.”

[2] = test system: cochlear ganglion neurons; conditions: Ylikoski et al., 1998; cited from earlier work
[3] = 100 mM neomycin (so in the source) alone for 48 hr, n=12

Molecule: O=C1NC(=O)c2c1c1c(c3[nH]c4ccccc4c23)Cc2ccccc2-1 [Example 8, 6H,12H,13H-Indeno[2,3-a]pyrrolo[3,4-c]carbazole-5,7(5H, 7H)-dione]
viability at 0.5 µM ([1]; Rattus norvegicus, 48 h, compound 500 nM plus 100 μM neomycin 48 hr, NEO = neomycin plus vehicle, each line a separate count, read-out: % preserved): 21%

Molecule: NGF: nerve growth factor, negative control in cochlear neuron cultures
survival of dissociated cochlear neurons of the perinatal rat [2]: does not have any effect or its effect is very weak

OHCs in the basal turn lost [1, 3]: Approximately 90%
OHCs in the middle turn lost [1, 3]: ~25%
Molecule: neomycin sulfate [reference compound]

B1: NT-3: neurotrophic factor, positive comparator in cochlear neuron cultures (protein, UniProt P20783 139-257, looked up)
Neurotrophin-3: YAEHKSHRGEYSVCDSESLWVTDKSSAIDIRGHQVTVLGEIKTGNSPVKQYFYETRCKEARPVKNGCRGIDDKHWNSQCKTSQTYVRALTSENNKLVGWRWIRIDTSCVCALSRKIGRT
survival of dissociated cochlear neurons of the perinatal rat [2]: most potent neurotrophic factor promoting survival
